Test results published in patent publication US10301332B2, “Method of selectively releasing nitric oxide depending on change in pH using calcium phosphate” (INSTITUTE FOR BASIC SCIENCE, priority 2015, dated 2019).

Assay: Release of nitric oxide depending on pH (Sievers NOA nitric oxide detector)
Assay type: physicochemical
Details: 1 mg in 40 ml DPBS, pH 7.4 (FIG. 8)
Procedure: FIGS. 8 to 10 illustrate results obtained using a nitric oxide detector (Sievers NOA, GE analytical instruments, USA) in order to confirm a nitric oxide release behavior of the synthesized CaP—NO depending on the change in pH. FIG. 8 illustrates a result of observing the nitric oxide release behavior after adding 1 mg of AEATS to 40 ml of Dulbecco's Phosphate-Buffered Saline (DPBS, pH 7.4). […] FIG. 9 illustrates a result of confirming a nitric oxide release behavior of CaP—NO depending on a change in pH. […] When the pH was increased to 7.4 again, nitric oxide was not released, and as a result of observing the nitric oxide release behavior while repeatedly changing the pH, it was confirmed that when the pH was 5, nitric oxide was released.

Q: For `CO[Si](CCCNCCN)(OC)OC` [AEATS, N-(2-aminoethyl)-3-aminopropyl trimethoxysilane], which “nitric oxide release behavior” value is on record?
A: a large amount of nitric oxide was released
